The values below come from patent publication US12012387B2, “Triazine compound and use thereof” (priority 2018, dated 2024).

Data set [1] deals with Gram-negative bacteria and Gram-positive bacteria. As to the kind of experiment: Antibacterial activity, MIC over the four strains (GM). It is filed as cell-based. Particulars: mean of the MIC values of the four strains. As for the experimental part: To confirm the antibacterial activity, a minimal inhibitory concentration (MIC) value, which is a minimum concentration at which fungus bodies are not divided, was measured. Specifically, the strains disclosed in the following table 1 were purchased, incubated in each medium up to a mid-log phase, diluted to a fungus body concentration of 2×10^5 cells/100 μl, and inoculated into a micro titrate plate (Nunc, USA). […] A control group was treated with melittine by the same method as above, so as to determine an MIC value for each strain.

The next data set has as its system trypsin. Briefly: Stability against protease (radial diffusion assay after trypsin treatment). It counts as in vitro ADME. Particulars: 24 hours after trypsin culture; FIG. 2. As for the experimental part:
To confirm the stability against the protease, trypsin degradation was identified by using a radial diffusion assay method after treatment with each of the triazine compounds of the following example. Specifically, the cultured strains (Escherichia coli) were incubated in 10 mL of LB medium at 37° C. for 18 hours, after which 10 μl of the culture fluid was inoculated into 10 mL of fresh BL medium and then further incubated for three hours, so as to obtain bacteria in a mid-logarithmic phase. For the radial diffusion assay method, a bacterial suspension (2×10^6 CFU/mL in LB) was mixed with 0.7% agarose and rapidly dispersed, after which the resulting mixed solution was poured into a 10 cm-long Petri dish. Each 5 μl of the triazine compound solution (10 mg/mL) of the following example was added to 25 μl of trypsin solution (0.2 μg/mL in PBS), and incubated at 37° C. for six hours. A reaction was terminated by freezing with liquid nitrogen, after which each 10 μl was taken, seeded on circular paper having a diameter of 6 mm placed on the Petri dish containing the agarose, and incubated overnight at 37° C. To quantify the inhibitory activity, the clearance zones of bacteria around the circular paper were measured to confirm the antibacterial activity. As a control group, melittine was used.

Turning to `CC[C@H](C)[C@H](NC(=O)CN)C(=O)NCC(=O)N[C@@H](C)C(=O)N[C@H](C(=O)N[C@@H](CC(C)C)C(=O)N[C@@H](CCCCN)C(=O)N[C@H](C(=O)N[C@@H](CC(C)C)C(=O)N[C@H](C(=O)N[C@H](C(=O)NCC(=O)N[C@@H](CC(C)C)C(=O)N1CCC[C@H]1C(=O)N[C@@H](C)C(=O)N[C@@H](CC(C)C)C(=O)N[C@H](C(=O)N[C@@H](CO)C(=O)N[C@@H](Cc1c[nH]c2ccccc12)C(=O)N[C@H](C(=O)N[C@@H](CCCCN)C(=O)N[C@@H](CCCNC(=N)N)C(=O)N[C@@H](CCCCN)C(=O)N[C@@H](CCCNC(=N)N)C(=O)N[C@@H](CCC(N)=O)C(=O)N[C@@H](CCC(N)=O)C(N)=O)[C@@H](C)CC)[C@@H](C)CC)[C@@H](C)O)[C@@H](C)O)C(C)C)C(C)C` [Melittin], the GM in data set [1] was determined as 3.8 µM. Further, the “antibacterial activity against E. coli after trypsin culture” value in the data set on trypsin is listed as “remarkable decrease in the antibacterial activity”.
